The target of experiment [1] is T1, human cloned CHRM3 receptor (M3_CHO cells) (Homo sapiens, UniProt P20309).
T1 construct: expressed in transfected cells; host or cells: CHO-K1
The experiment can be described thus: CHRM3 Ca++ Flux Assay (agonist mode, FDSS 7000EX). The conditions noted are these: for Emax: Percent Activity measured to EC100 of Carbachol, read-out: M3 FDSS PA; for EC50: agonist mode, geometric mean if tested more than once, read-out: M3 FDSS EC50. Type of experiment: cell-based. The essentials: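 Stable CHO-K1 lines (human M3 or M5), calcium-dye loaded ≥1 h, assayed in Ca/Mg-free HBSS + 20 mM HEPES + 2.5 mM probenecid. 11-pt dose response, triplicate, 3 min fluorescence read. 4-parameter regression; % activity vs carbachol EC100.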

For experiment [2], the target named is T2, human cloned CHRM4 receptor (M4_CHO cells) (Homo sapiens, UniProt P08173).
T2 construct: expressed in transfected cells; host or cells: CHO-K1
T2 sequence (P08173 1-479): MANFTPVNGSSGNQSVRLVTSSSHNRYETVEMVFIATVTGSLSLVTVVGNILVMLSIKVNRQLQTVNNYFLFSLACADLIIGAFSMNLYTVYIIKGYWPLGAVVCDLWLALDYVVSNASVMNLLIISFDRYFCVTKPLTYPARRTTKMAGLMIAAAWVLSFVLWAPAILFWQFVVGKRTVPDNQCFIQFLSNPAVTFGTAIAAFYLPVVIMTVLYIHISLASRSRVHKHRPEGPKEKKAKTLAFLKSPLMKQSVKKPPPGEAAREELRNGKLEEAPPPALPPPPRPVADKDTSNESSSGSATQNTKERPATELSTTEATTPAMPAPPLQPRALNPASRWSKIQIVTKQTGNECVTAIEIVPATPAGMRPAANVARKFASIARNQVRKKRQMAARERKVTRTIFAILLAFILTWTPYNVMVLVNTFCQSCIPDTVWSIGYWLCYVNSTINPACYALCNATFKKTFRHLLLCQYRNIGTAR
The experiment can be described thus: CHRM4 Ca++ Flux Assay (agonist mode, FDSS 7000EX). Type of experiment: cell-based. The conditions noted are these: for Emax: Percent Activity, read-out: M4 FDSS PA; for EC50: geometric mean if tested more than once, read-out: M4 FDSS EC50. The essentials:
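Agonist-mode response was expressed as percent of the Carbachol EC100 and fitted with four-parameter nonlinear regression over an 11-point triplicate dose series. Intracellular Ca++ was tracked for 3 min by fluorescent dye in CHO-K1 cells stably expressing human CHRM4. Cells were preincubated 60 min with 20 μM ATP in buffer containing 2.5 mM probenecid.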

T1 sequence (P20309 whole entry): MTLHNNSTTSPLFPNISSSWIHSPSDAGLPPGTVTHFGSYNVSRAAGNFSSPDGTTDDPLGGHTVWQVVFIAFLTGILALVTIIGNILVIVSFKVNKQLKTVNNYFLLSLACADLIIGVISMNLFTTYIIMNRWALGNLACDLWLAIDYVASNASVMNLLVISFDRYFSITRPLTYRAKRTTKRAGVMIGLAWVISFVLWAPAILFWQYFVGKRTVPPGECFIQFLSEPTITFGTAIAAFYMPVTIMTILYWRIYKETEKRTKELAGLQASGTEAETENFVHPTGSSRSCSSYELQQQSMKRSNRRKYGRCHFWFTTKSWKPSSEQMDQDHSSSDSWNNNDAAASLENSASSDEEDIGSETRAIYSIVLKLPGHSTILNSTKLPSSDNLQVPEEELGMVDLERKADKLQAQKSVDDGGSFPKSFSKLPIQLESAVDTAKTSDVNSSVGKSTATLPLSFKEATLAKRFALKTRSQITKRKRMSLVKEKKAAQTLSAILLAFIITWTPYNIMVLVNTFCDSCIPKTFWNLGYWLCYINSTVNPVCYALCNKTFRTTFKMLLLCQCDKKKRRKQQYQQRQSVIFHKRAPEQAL

As usually defined, the EC50 is the concentration needed to bring the measured effect to its halfway point. In the case of `O=C(C1COC1)N1CC2(CC[C@H](N3CCC(c4ccccc4OC(F)(F)F)CC3)C2)C1` (single isomer, unassigned) [Example 8G], in experiment [1], the Emax came out at 0% and the EC50 was above 25000 nM. In experiment [2], the Emax is 24% and the EC50 is 274 nM.

For `COCCOc1ccccc1C1CCN([C@@H]2CCC3(C2)CN(c2ncns2)C3)CC1` [Example 3J, (R)-5-(6-(4-(2-(2-methoxyethoxy)phenyl)piperidin-1-yl)-2-azaspiro[3.4]octan-2-yl)-1,2,4-thiadiazole], the Emax in experiment [1] was found to be 0%; in experiment [2], 57%. The EC50 in experiment [1] was above 25000 nM; in experiment [2] it was 4 nM.

Regarding `c1ccc(C2CCN([C@@H]3CCC4(C3)CN(c3nnco3)C4)CC2)c(CC2CCOCC2)c1` [Example 2L, (R)-2-(6-(4-(2-((tetrahydro-2H-pyran-4-yl)methyl)phenyl)piperidin-1-yl)-2-azaspiro[3.4]octan-2-yl)-1,3,4-oxadiazole], the Emax in experiment [1] worked out at 0%; in experiment [2] it was 77%. Moreover, the EC50 was above 25000 nM in experiment [1] and 11 nM in experiment [2].

Take `c1ccc(C2CCN([C@@H]3CCC4(C3)CN(c3nnco3)C4)CC2)c(C2CCOCC2)c1` [Example 2H, (R)-2-(6-(4-(2-(tetrahydro-2H-pyran-4-yl)phenyl)piperidin-1-yl)-2-azaspiro[3.4]octan-2-yl)-1,3,4-oxadiazole]: the Emax was found to be 0% in experiment [1] and 83% in experiment [2]. Further, the EC50 is above 25000 nM in experiment [1] and 3 nM in experiment [2].

Regarding `c1ccc(C2CCN([C@@H]3CCC4(C3)CN(c3nnco3)C4)CC2)c(O[C@@H]2CCOC2)c1` [Example 2B, 2-((R)-6-(4-(2-(((R)-tetrahydrofuran-3-yl)oxy)phenyl)piperidin-1-yl)-2-azaspiro[3.4]octan-2-yl)-1,3,4-oxadiazole], in experiment [1], the Emax amounted to 0% and the EC50 was above 25000 nM. For the same compound, in experiment [2], the Emax was found to be 95% and the EC50 was below 0.4 nM.

In the case of `O=C(C1COC1)N1CC2(CC[C@@H](N3CCC(c4ccccc4Oc4nccs4)CC3)C2)C1` [Example 7C, (R)-oxetan-3-yl(6-(4-(2-(thiazol-2-yloxy)phenyl)piperidin-1-yl)-2-azaspiro[3.4]octan-2-yl)methanone], in experiment [1], the Emax was 0% and the EC50 was above 25000 nM. Also, in experiment [2], the Emax stood at 39% and the EC50 was 4 nM.

As to `c1ccc(C2CCN([C@@H]3CCC4(C3)CN(c3nnco3)C4)CC2)c(OCC2CCOCC2)c1` [Example 2G, (R)-2-(6-(4-(2-((tetrahydro-2H-pyran-4-yl)methoxy)phenyl)piperidin-1-yl)-2-azaspiro[3.4]octan-2-yl)-1,3,4-oxadiazole], in experiment [1], the Emax stood at 0% and the EC50 was above 25000 nM. Further, in experiment [2], the Emax is 70% and the EC50 was 7 nM.

As to `CC(C)(O)COc1ccccc1C1CCN([C@@H]2CCC3(C2)CN(c2nncs2)C3)CC1` [Example 3G, (R)-1-(2-(1-(2-(1,3,4-thiadiazol-2-yl)-2-azaspiro[3.4]octan-6-yl)piperidin-4-yl)phenoxy)-2-methylpropan-2-ol], in experiment [1], the Emax worked out at 0% and the EC50 is above 25000 nM. In experiment [2], the Emax turned out to be 57% and the EC50 turned out to be 7 nM.

As for `O=C(N1CC2(CC[C@@H](N3CCC(c4ccccc4C4CCOCC4)CC3)C2)C1)C1(F)CC1` [Example 6E, (R)-(1-fluorocyclopropyl)(6-(4-(2-(tetrahydro-2H-pyran-4-yl)phenyl)piperidin-1-yl)-2-azaspiro[3.4]octan-2-yl)methanone], the values for the Emax in experiment [1] and in experiment [2] were 0% and 65%, respectively. In addition, the EC50 in experiment [1] was above 25000 nM; in experiment [2], 3 nM.

With `CC(C)(O)CCOc1ccccc1C1CCN([C@@H]2CCC3(C2)CN(c2ncns2)C3)CC1` [Example 3L, (R)-4-(2-(1-(2-(1,2,4-thiadiazol-5-yl)-2-azaspiro[3.4]octan-6-yl)piperidin-4-yl)phenoxy)-2-methylbutan-2-ol], the Emax amounted to 0% in experiment [1] and 34% in experiment [2]. The EC50 in experiment [1] is above 25000 nM; in experiment [2], 19 nM.

Consider `c1ccc(C2CCN([C@@H]3CCC4(C3)CN(c3nnco3)C4)CC2)c(OC2COC2)c1` [Example 1D, (R)-2-(6-(4-(2-(oxetan-3-yloxy)phenyl)piperidin-1-yl)-2-azaspiro[3.4]octan-2-yl)-1,3,4-oxadiazole], for which the Emax in experiment [1] was determined as 0%; in experiment [2], 79%. For the same compound, the values for the EC50 in experiment [1] and in experiment [2] were above 25000 nM and 1 nM, respectively.

As to `COc1ccccc1C1CCN([C@@H]2CCC3(C2)CN(c2nc(C)ns2)C3)CC1` [Example 3M, (R)-5-(6-(4-(2-methoxyphenyl)piperidin-1-yl)-2-azaspiro[3.4]octan-2-yl)-3-methyl-1,2,4-thiadiazole], the Emax turned out to be 0% in experiment [1] and 30% in experiment [2]. In addition, the results for the EC50 in experiment [1] and in experiment [2] were above 25000 nM and 18 nM, respectively.

In the case of `COCCOc1ccccc1C1CCN([C@@H]2CCC3(C2)CN(c2cnc(C)cn2)C3)CC1` [Example 5Y, (R)-6-(4-(2-(2-methoxyethoxy)phenyl)piperidin-1-yl)-2-(5-methylpyrazin-2-yl)-2-azaspiro[3.4]octane], in experiment [1], the Emax turned out to be 0% and the EC50 was above 25000 nM. Also, in experiment [2], the Emax came out at 0% and the concentration for a half-maximal effect (EC50) was above 25000 nM.

`c1ccc(C2CCN([C@@H]3CCC4(C3)CN(c3nnco3)C4)CC2)c(OC2CCOCC2)c1` [Example 2F, (R)-2-(6-(4-(2-((tetrahydro-2H-pyran-4-yl)oxy)phenyl)piperidin-1-yl)-2-azaspiro[3.4]octan-2-yl)-1,3,4-oxadiazole]: in experiment [1], the Emax stood at 0% and the EC50 was above 25000 nM. For the same compound, in experiment [2], the Emax came out at 88% and the EC50 came out at 7 nM.

With `O=C(N1CC2(CC[C@H](N3CCC(c4ccccc4C4CCOCC4)CC3)C2)C1)C1(F)CC1` (single isomer, unassigned) [Example 9M], the Emax was 0% in experiment [1] and 35% in experiment [2]. Further, the EC50 in experiment [1] was above 25000 nM; in experiment [2] it was 100 nM.

`O=C(C1COC1)N1CC2(CC[C@@H](N3CCC(c4ccccc4OCCOC(F)(F)F)CC3)C2)C1` [Example 7DD, (R)-oxetan-3-yl(6-(4-(2-(2-(trifluoromethoxy)ethoxy)phenyl)piperidin-1-yl)-2-azaspiro[3.4]octan-2-yl)methanone]: in experiment [1], the Emax amounted to 0% and the EC50 is above 25000 nM. Moreover, in experiment [2], the Emax was determined as 42% and the EC50 was found to be 27 nM.

On to `O=C(C1COC1)N1CC2(CC[C@@H](N3CCC(c4ccccc4OCC4(C(F)(F)F)CC4)CC3)C2)C1` [Example 7II, (R)-oxetan-3-yl(6-(4-(2-((1-(trifluoromethyl)cyclopropyl)methoxy)phenyl)piperidin-1-yl)-2-azaspiro[3.4]octan-2-yl)methanone], for which, in experiment [1], the Emax was determined as 0% and the EC50 is above 25000 nM. In addition, in experiment [2], the Emax is 50% and the EC50 came out at 9 nM.

For the compound `Fc1ccc(C2CCOC2)c(C2CCN([C@@H]3CCC4(C3)CN(c3nnco3)C4)CC2)c1` (mixture of isomers) [Example 2J, 2-((6R)-6-(4-(5-fluoro-2-(tetrahydrofuran-3-yl)phenyl)piperidin-1-yl)-2-azaspiro[3.4]octan-2-yl)-1,3,4-oxadiazole], the Emax in experiment [1] worked out at 0%; in experiment [2], 92%. Besides, the EC50 was above 25000 nM in experiment [1] and 2 nM in experiment [2].

Turning to `CC(C)(O)CCOc1ccccc1C1CCN([C@@H]2CCC3(C2)CN(c2nnco2)C3)CC1` [Example 1F], in experiment [1], the Emax amounted to 0% and the 50% effective concentration (EC50) was above 25000 nM. In addition, in experiment [2], the Emax came to 48% and the EC50 worked out at 4 nM.

Regarding `c1ccc(C2CCN([C@H]3CCC4(C3)CN(c3nnco3)C4)CC2)c(C2CCOCC2)c1` (single isomer, unassigned) [Example 10T], in experiment [1], the Emax is 0% and the EC50 was above 25000 nM. In experiment [2], the Emax is 67% and the EC50 is 170 nM.

With `O=C(C1COC1)N1CC2(CC[C@@H](N3CCC(c4ccccc4OC4CCCC4)CC3)C2)C1` [Example 7G, (R)-(6-(4-(2-(cyclopentyloxy)phenyl)piperidin-1-yl)-2-azaspiro[3.4]octan-2-yl)(oxetan-3-yl)methanone], in experiment [1], the Emax came out at 0% and the EC50 is above 25000 nM. Moreover, in experiment [2], the Emax was 61% and the EC50 was determined as 9 nM.

Consider `COCCOc1ccccc1C1CCN([C@@H]2CCC3(C2)CN(c2nncs2)C3)CC1` [Example 3F, (R)-2-(6-(4-(2-(2-methoxyethoxy)phenyl)piperidin-1-yl)-2-azaspiro[3.4]octan-2-yl)-1,3,4-thiadiazole], for which, in experiment [1], the Emax is 0% and the EC50 is above 25000 nM. Also, in experiment [2], the Emax was 60% and the EC50 came out at 6 nM.

For the origin of these results see patent US12122761B2, “2-azaspiro[3.4]octane derivatives as M4 agonists” (NOVARTIS AG, priority 2019, dated 2024).
